According to patent US11214594B2, “Antimicrobial peptide having synergistic antibacterial effect with antibiotics on multidrug resistant bacteria, and use thereof” (priority 2016, dated 2022):
Converted amounts (≈) assume the structure as drawn. Where a SMILES comes first, the peptide text is derived from it.

Legend:
S. typhimurium = assay: microbe, parasite or virus in culture; type: cell-based, Salmonella typhimurium
Summary of the method: (§1)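 Each strain is brought to 2×10^6 CFU in nutrient-sufficient Mueller-Hinton medium and dispensed into wells. Peptide solutions, stepwise diluted 2:1 in the same medium, are then added. The minimal concentration preventing growth gives the MIC.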

MRSA 3114 = type: cell-based, Staphylococcus aureus; details: 3114
Summary of the method: as §1

MRSA 3126 = type: cell-based, Staphylococcus aureus; details: 3126
Summary of the method: as §1

MDRAB 12035 [1] = assay: MIC of antibiotic during combined treatment with antimicrobial peptide; type: cell-based, Acinetobacter baumannii
Summary of the method: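 Strains in MH medium at 2×10^6 CFU/ml were mixed with peptide diluted stepwise (2:1) from its MIC, then antibiotic dilutions in MH medium were added to give the antibiotic MIC. The reversed set-up, peptide titrated against fixed antibiotic, gave the peptide MIC.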

A. baumannii = assay: microbe, parasite or virus in culture; type: cell-based, Acinetobacter baumannii; details: for Antibacterial activity relative to PapMA-1: A. baumannii and antibiotic-resistant strains thereof
Summary of the method: as §1

MDRAB 12035 [2] = assay: microbe, parasite or virus in culture; type: cell-based, Acinetobacter baumannii
Summary of the method: as §1

S. aureus = assay: microbe, parasite or virus in culture; type: cell-based, Staphylococcus aureus
Summary of the method: as §1

gram-negative bacteria = assay: MIC, summary statements for gram-negative bacteria; type: cell-based; details: gram-negative bacteria
Procedure: For the antibacterial activity, a minimal inhibitory concentration (MIC) of a peptide in which fungus bodies were not split in an MH medium with sufficient nutrients was measured.
Specifically, the strains described in the following [Table 2] were purchased and diluted with an MH medium such that the number of bacteria was 2×10^6 colony-forming units (CFUs), 100 μl of each of the diluted strains was aliquoted into a 96-well microtiter plate, and then 100 μl of a peptide solution diluted with the MH medium (solution diluted stepwise at 2: 1) was added to each well.

MDRST 8007 = assay: Minimal inhibitory concentration (MIC), single agent; type: cell-based, Salmonella typhimurium; details: agent alone
Summary of the method: as §1

MDRAB 12036 = type: cell-based, Acinetobacter baumannii
Summary of the method: as §1

MDRPA 2002 = type: cell-based, Pseudomonas aeruginosa
Summary of the method: as §1

MDRPA 2003 = type: cell-based, Pseudomonas aeruginosa
Summary of the method: as §1

MDREC 1238 = type: cell-based, Escherichia coli
Summary of the method: as §1

[3] = peptide treatment concentration 1 μg/ml
[4] = peptide treatment concentration 2 μg/ml
[5] = peptide treatment concentration 4 μg/ml
[6] = peptide treatment concentration 6 μg/ml
[7] = peptide treatment concentration 8 μg/ml
[8] = peptide treatment concentration 16 μg/ml
[9] = peptide treatment concentration 32 μg/ml
[10] = peptide treatment concentration 64 μg/ml

Structure (SMILES)	Minimal inhibitory concentration MIC (S. typhimurium) [µg/mL]	Minimal inhibitory concentration MIC (MRSA 3114) [µg/mL]	Minimal inhibitory concentration MIC (MRSA 3126) [µg/mL]	Erythromycin MIC during combined treatment with peptide (MDRAB 12035 [1]; [3]) [µg/mL]	Linezolid MIC during combined treatment with peptide (MDRAB 12035 [1]; [3]) [µg/mL]	Vancomycin MIC during combined treatment with peptide (MDRAB 12035 [1]; [3]) [µg/mL]	Erythromycin MIC during combined treatment with peptide (MDRAB 12035 [1]; [4]) [µg/mL]	Linezolid MIC during combined treatment with peptide (MDRAB 12035 [1]; [4]) [µg/mL]	Vancomycin MIC during combined treatment with peptide (MDRAB 12035 [1]; [4]) [µg/mL]	Erythromycin MIC during combined treatment with peptide (MDRAB 12035 [1]; [5]) [µg/mL]	Linezolid MIC during combined treatment with peptide (MDRAB 12035 [1]; [5]) [µg/mL]	Vancomycin MIC during combined treatment with peptide (MDRAB 12035 [1]; [5]) [µg/mL]	Erythromycin MIC during combined treatment with peptide (MDRAB 12035 [1]; [6]) [µg/mL]	Linezolid MIC during combined treatment with peptide (MDRAB 12035 [1]; [6]) [µg/mL]	Vancomycin MIC during combined treatment with peptide (MDRAB 12035 [1]; [6]) [µg/mL]	Erythromycin MIC during combined treatment with peptide (MDRAB 12035 [1]; [7]) [µg/mL]	Linezolid MIC during combined treatment with peptide (MDRAB 12035 [1]; [7]) [µg/mL]	Vancomycin MIC during combined treatment with peptide (MDRAB 12035 [1]; [7]) [µg/mL]	Erythromycin MIC during combined treatment with peptide (MDRAB 12035 [1]; [8]) [µg/mL]	Linezolid MIC during combined treatment with peptide (MDRAB 12035 [1]; [8]) [µg/mL]	other results
CC[C@H](C)[C@H](NC(=O)[C@H](CCCCN)NC(=O)[C@H](Cc1c[nH]c2ccccc12)NC(=O)[C@@H](N)CCCNC(=N)N)C(=O)N[C@@H](Cc1ccccc1)C(=O)N[C@@H](CCCCN)C(=O)N[C@@H](CCCCN)C(=O)N[C@H](C(=O)N1CCC[C@H]1C(=O)N[C@@H](CCCCN)C(=O)N[C@@H](Cc1ccccc1)C(=O)N[C@@H](CC(C)C)C(=O)N[C@@H](Cc1c[nH]cn1)C(=O)N[C@@H](CO)C(=O)N[C@@H](Cc1c[nH]c2ccccc12)C(=O)N[C@@H](CCCCN)C(=O)N[C@@H](CCCCN)C(=O)N[C@@H](Cc1ccccc1)C(N)=O)[C@@H](C)CC [PapMA-3, RWK IFK KIP KFL HSW KKF-NH2] (H-RWKIFKKIPKFLHSWKKF-NH2; N-terminus assumed)	32 (≈ 13.2 µM)	>128	>128	32	>128	>128	16	128	>128	8	32	128	4	32	32	0.25	16	16	0	0	Vancomycin MIC during combined treatment with peptide (MDRAB 12035 [1]; [8]): 0 µg/mL; Erythromycin MIC during combined treatment with peptide (MDRAB 12035 [1]; [9]): 0 µg/mL; Linezolid MIC during combined treatment with peptide (MDRAB 12035 [1]; [9]): 0 µg/mL; Vancomycin MIC during combined treatment with peptide (MDRAB 12035 [1]; [9]): 0 µg/mL; Erythromycin MIC during combined treatment with peptide (MDRAB 12035 [1]; [10]): 0 µg/mL; Linezolid MIC during combined treatment with peptide (MDRAB 12035 [1]; [10]): 0 µg/mL; Vancomycin MIC during combined treatment with peptide (MDRAB 12035 [1]; [10]): 0 µg/mL; Minimal inhibitory concentration MIC (A. baumannii): 16 µg/mL (≈ 6.62 µM); Peptide MIC, peptide alone (A. baumannii): 16 µg/mL; Antibacterial activity relative to PapMA-1 (A. baumannii): 4 times; Minimal inhibitory concentration MIC (MDRAB 12035 [2]): 16 µg/mL (≈ 6.62 µM); Peptide MIC, peptide alone (MDRAB 12035 [2]): 16 µg/mL; Minimal inhibitory concentration MIC (S. aureus): >128 µg/mL; Antibacterial activity (in words) (gram-negative bacteria): comparable to papiliocin or melittin; Minimal inhibitory concentration MIC (MDRST 8007): 32 µg/mL (≈ 13.2 µM); Minimal inhibitory concentration MIC (MDRAB 12036): 16 µg/mL (≈ 6.62 µM); Minimal inhibitory concentration MIC (MDRPA 2002): 16 µg/mL (≈ 6.62 µM); Minimal inhibitory concentration MIC (MDRPA 2003): 16 µg/mL (≈ 6.62 µM); Minimal inhibitory concentration MIC (MDREC 1238): 64 µg/mL (≈ 26.5 µM)
CC[C@H](C)[C@H](NC(=O)[C@H](CCCCN)NC(=O)[C@H](Cc1c[nH]c2ccccc12)NC(=O)[C@@H](N)CCCNC(=N)N)C(=O)N[C@@H](Cc1ccccc1)C(=O)N[C@@H](CCCCN)C(=O)N[C@@H](CCCCN)C(=O)N[C@H](C(=O)N1CCC[C@H]1C(=O)N[C@@H](CCCCN)C(=O)N[C@@H](Cc1ccccc1)C(=O)N[C@@H](CC(C)C)C(=O)N[C@@H](Cc1c[nH]cn1)C(=O)N[C@@H](CO)C(=O)N[C@@H](C)C(=O)N[C@@H](CCCCN)C(=O)N[C@@H](CCCCN)C(=O)N[C@@H](Cc1c[nH]c2ccccc12)C(N)=O)[C@@H](C)CC [PapMA-2, RWK IFK KIP KFL HSA KKW-NH2] (H-RWKIFKKIPKFLHSAKKW-NH2; N-terminus assumed)	32 (≈ 13.7 µM)	>128	>128	32	>128	>128	16	64	>128	4	32	128	2	32	32	0.25	8	16	0	0	Vancomycin MIC during combined treatment with peptide (MDRAB 12035 [1]; [8]): 0 µg/mL; Erythromycin MIC during combined treatment with peptide (MDRAB 12035 [1]; [9]): 0 µg/mL; Linezolid MIC during combined treatment with peptide (MDRAB 12035 [1]; [9]): 0 µg/mL; Vancomycin MIC during combined treatment with peptide (MDRAB 12035 [1]; [9]): 0 µg/mL; Erythromycin MIC during combined treatment with peptide (MDRAB 12035 [1]; [10]): 0 µg/mL; Linezolid MIC during combined treatment with peptide (MDRAB 12035 [1]; [10]): 0 µg/mL; Vancomycin MIC during combined treatment with peptide (MDRAB 12035 [1]; [10]): 0 µg/mL; Minimal inhibitory concentration MIC (A. baumannii): 16 µg/mL (≈ 6.83 µM); Peptide MIC, peptide alone (A. baumannii): 16 µg/mL; Antibacterial activity relative to PapMA-1 (A. baumannii): 4 times; Minimal inhibitory concentration MIC (MDRAB 12035 [2]): 16 µg/mL (≈ 6.83 µM); Peptide MIC, peptide alone (MDRAB 12035 [2]): 16 µg/mL; Minimal inhibitory concentration MIC (S. aureus): >128 µg/mL; Antibacterial activity (in words) (gram-negative bacteria): comparable to papiliocin or melittin; Minimal inhibitory concentration MIC (MDRST 8007): 32 µg/mL (≈ 13.7 µM); Minimal inhibitory concentration MIC (MDRAB 12036): 16 µg/mL (≈ 6.83 µM); Minimal inhibitory concentration MIC (MDRPA 2002): 16 µg/mL (≈ 6.83 µM); Minimal inhibitory concentration MIC (MDRPA 2003): 16 µg/mL (≈ 6.83 µM); Minimal inhibitory concentration MIC (MDREC 1238): 64 µg/mL (≈ 27.3 µM)
